Active and inactive are the calls of the source. How the calls were made is not given here.
Test system: rodent carcinogenicity bioassays, tumor incidence
Test: CCRIS carcinogenicity studies
Conditions: Dose: 0, Dose: 0
Procedure, shortened: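 NCI-built, expert-reviewed records of carcinogenicity and related test outcomes (mutagenicity, tumor promotion/inhibition) compiled from published and report sources, historical span 1985-2011, not updated.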

Clc1ccc(Cl)cc1
carcinogen call (Species: MOUSE, Strain/Sex: B6C3F1/FEMALE, Route: GAVAGE, 300, 600 MG/KG IN CORN OIL 5 D/WK FOR 103 WK, 300, 600 MG/KG IN CORN OIL 5 D/WK FOR 103 WK, Tumor Site: Type of Lesion: LIVER: HEPATOCELLULAR ADENOMA, HEPATOCELLULAR CARCINOMA): active; positive
carcinogen call (Species: MOUSE, Strain/Sex: B6C3F1/MALE, Route: GAVAGE, 300, 600 MG/KG IN CORN OIL 5 D/WK FOR 103 WK, 300, 600 MG/KG IN CORN OIL 5 D/WK FOR 103 WK, Tumor Site: Type of Lesion: LIVER: HEPATOCELLULAR ADENOMA, HEPATOCELLULAR CARCINOMA): active; positive
carcinogen call (Species: MOUSE, Strain/Sex: CRJ:BDF1/FEMALE, Route: INHALATION, 20, 75, 300 PPM 6 HR/D, 5 D/WK FOR 2 YRS (STUDY DURATION: 2 YRS), 20, 75, 300 PPM 6 HR/D, 5 D/WK FOR 2 YRS (STUDY DURATION: 2 YRS), Tumor Site: Type of Lesion: LIVER: HEPATOCELLULAR ADENOMA, LIVER: HEPATOCELLULAR CARCINOMA, LIVER: HEPATOBLASTOMA, Tumor Site: Type of Lesion: LIVER: HEPATOCELLULAR ADENOMA, LIVER: HEPATOCELLULAR CARCINOMA, LIVER: HEPATOBLASTOMA): active; positive
carcinogen call (Species: MOUSE, Strain/Sex: CRJ:BDF1/MALE, Route: INHALATION, 20, 75, 300 PPM 6 HR/D, 5 D/WK FOR 2 YRS (STUDY DURATION: 2 YRS), 20, 75, 300 PPM 6 HR/D, 5 D/WK FOR 2 YRS (STUDY DURATION: 2 YRS), Tumor Site: Type of Lesion: LIVER: HEPATOCELLULAR CARCINOMA, LIVER: HEPATOBLASTOMA, HISTIOCYTIC SARCOMA, Tumor Site: Type of Lesion: LIVER: HEPATOCELLULAR CARCINOMA, LIVER: HEPATOBLASTOMA, HISTIOCYTIC SARCOMA): active; positive
carcinogen call (Species: RAT, Strain/Sex: F344/FEMALE, Route: GAVAGE, 300, 600 MG/KG IN CORN OIL 5 D/WK FOR 103 WK, 300, 600 MG/KG IN CORN OIL 5 D/WK FOR 103 WK): inactive; negative
carcinogen call (Species: RAT, Strain/Sex: F344/MALE, FEMALE, Route: INHALATION, 20, 75, 300 PPM 6 HR/D, 5 D/WK FOR 2 YRS (STUDY DURATION: 2 YRS), 20, 75, 300 PPM 6 HR/D, 5 D/WK FOR 2 YRS (STUDY DURATION: 2 YRS)): inactive; negative
carcinogen call (Species: RAT, Strain/Sex: F344/MALE, Route: GAVAGE, 150, 300 MG/KG IN CORN OIL 5 D/WK FOR 103 WK, 150, 300 MG/KG IN CORN OIL 5 D/WK FOR 103 WK, Tumor Site: Type of Lesion: KIDNEY: TUBULAR CELL ADENOCARCINOMA, TUBULAR CELL ADENOMA OR ADENOCARCINOMA): active; positive

O=C1c2ccccc2C(=O)N1SC(Cl)(Cl)Cl
carcinogen call (Species: MOUSE, Strain/Sex: B6C3F1/FEMALE, Route: ORAL, 1000, 5000, 10000 PPM IN DIET FOR 104 WK (STUDY DURATION: 104 WK), 1000, 5000, 10000 PPM IN DIET FOR 104 WK (STUDY DURATION: 104 WK), Tumor Site: Type of Lesion: DUODENUM: CARCINOMA OR ADENOMA): active; positive
carcinogen call (Species: MOUSE, Strain/Sex: B6C3F1/MALE, Route: ORAL, 1000, 5000, 10000 PPM IN DIET FOR 104 WK (STUDY DURATION: 104 WK), 1000, 5000, 10000 PPM IN DIET FOR 104 WK (STUDY DURATION: 104 WK), Tumor Site: Type of Lesion: NON-GLANDULAR STOMACH: PAPILLOMA OR SQUAMOUS CELL CARCINOMA, DUODENUM: CARCINOMA OR ADENOMA): active; positive
carcinogen call (Species: Mouse, Strain/Sex: B6C3F1/Female (52/Group), Route: Oral, 1000, 5000/3500, 10,000/7000 ppm (doses reduced at wk 21) of 88-89% folpet in diet for 2 yr, study duration 2 yr, 1000, 5000/3500, 10,000/7000 ppm (doses reduced at wk 21) of 88-89% folpet in diet for 2 yr, study duration 2 yr, Tumor Site: Type of Lesion: Stomach: papilloma and squamous cell carcinoma combined (2, 2, 5, 7). Duodenum: adenomas and carcinomas (1, 2, 10, 19).): active; positive
carcinogen call (Species: Mouse, Strain/Sex: B6C3F1/Male (52/Group), Route: Oral, 1000, 5000/3500, 10,000/7000 ppm (doses reduced at wk 21) of 88-89% folpet in diet for 2 yr, study duration 2 yr, 1000, 5000/3500, 10,000/7000 ppm (doses reduced at wk 21) of 88-89% folpet in diet for 2 yr, study duration 2 yr, Tumor Site: Type of Lesion: Stomach: papilloma and squamous cell carcinoma combined (0, 2, 6, 3). Duodenum: adenomas and carcinomas (0, 4, 17, 25)): active; positive
carcinogen call (Species: Rat, Strain/Sex: Strain not specified in Department of Pesticides Regulation report /Female (60/Group), Route: Oral, 200, 800, 3200 ppm of 89.5% folpet in diet for 105 wk, study duration 105 wk, 200, 800, 3200 ppm of 89.5% folpet in diet for 105 wk, study duration 105 wk): inactive; negative
carcinogen call (Species: Rat, Strain/Sex: Strain not specified in Department of Pesticides Regulation report /Male (60/Group), Route: Oral, 200, 800, 3200 ppm of 89.5% folpet in diet for 105 wk, study duration 105 wk, 200, 800, 3200 ppm of 89.5% folpet in diet for 105 wk, study duration 105 wk): inactive; negative. increased incidence of thyroid tumors judged by reviewers as equivocal

OC1c2nc3c(ccc4ccccc43)cc2C2OC2C1O (configuration not stated)
carcinogen call (Species: MOUSE, Strain/Sex: SWISS/FEMALE, Route: INTRAPERITONEAL, 1.05 UMOL GIVEN AS 150 NMOL IN 5 µL DMSO WITHIN 24 HR OF BIRTH, 300 NMOL IN 10 µL DMSO ON D 8 OF LIFE, AND 600 NMOL I): inactive; negative
carcinogen call (Species: MOUSE, Strain/Sex: SWISS/MALE, Route: INTRAPERITONEAL, 1.05 UMOL GIVEN AS 150 NMOL IN 5 µL DMSO WITHIN 24 HR OF BIRTH, 300 NMOL IN 10 µL DMSO ON D 8 OF LIFE, AND 600 NMOL I): inactive; negative

Nc1cccc(N)c1
carcinogen call (Species: MOUSE, Strain/Sex: B6C3F1/FEMALE, Route: ORAL, 0.02, 0.04% IN DRINKING WATER FOR 78 WK, TOTAL INTAKE 13.0, 22.9 G/KG (STUDY DURATION: 85 WK), 0.02, 0.04% IN DRINKING WATER FOR 78 WK, TOTAL INTAKE 13.0, 22.9 G/KG (STUDY DURATION: 85 WK)): inactive; negative
carcinogen call (Species: MOUSE, Strain/Sex: B6C3F1/MALE, Route: ORAL, 0.02, 0.04% IN THE DRINKING WATER FOR 78 WK, TOTAL INTAKE 10.9, 21.0 G/KG BODY WEIGHT (STUDY DURATION: 85 WK), 0.02, 0.04% IN THE DRINKING WATER FOR 78 WK, TOTAL INTAKE 10.9, 21.0 G/KG BODY WEIGHT (STUDY DURATION: 85 WK)): inactive; negative

Source: PubChem BioAssay AID1259411 (Chemical Carcinogenesis Research Information System (CCRIS), 2018)
